Structures are written as SMILES.

The target of this experiment is T1, MtbPurT (Mycobacterium tuberculosis, UniProt P95197).
T1 construct: gene purT
Description: biochemical.

T1 sequence (P95197 entry or part of it): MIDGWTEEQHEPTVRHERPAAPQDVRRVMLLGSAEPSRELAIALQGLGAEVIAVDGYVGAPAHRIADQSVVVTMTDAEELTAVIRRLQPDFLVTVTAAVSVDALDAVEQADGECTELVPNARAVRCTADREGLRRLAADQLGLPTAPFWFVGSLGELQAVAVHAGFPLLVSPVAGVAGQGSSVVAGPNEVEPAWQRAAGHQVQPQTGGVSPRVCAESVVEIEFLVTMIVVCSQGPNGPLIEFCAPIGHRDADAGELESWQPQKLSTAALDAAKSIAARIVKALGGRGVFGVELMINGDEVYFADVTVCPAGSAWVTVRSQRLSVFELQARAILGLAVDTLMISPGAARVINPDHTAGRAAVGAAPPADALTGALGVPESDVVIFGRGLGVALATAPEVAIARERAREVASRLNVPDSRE

In general, Kd refers to the equilibrium constant for the complex coming apart. High values mean lower affinity, low ones higher affinity. The molecule `Nc1ncnc2c1ncn2[C@@H]1O[C@H](CO[P@](=O)(O)O[P@](=O)(O)O[P@@](=O)(O)S)[C@@H](O)[C@H]1O` [ATPγS] showed a Kd of 207 ± 8.02 µM.
